# Results: PubChem BioAssay AID651973 (The Scripps Research Institute Molecular Screening Center, 2013)
# Active and inactive are the calls of the source. The rule behind the calls is not given here.
# Tested on: Cell-based VP16 transactivation luciferase reporter, luminescence
# Assay: compounds lowering VP16-driven luciferase output – cell-based, luminescence, counter-screen for LRH-1 inverse agonist project, dose response (AID 651973)
row,SMILES,IC50
1,CC1CC(C)CN(c2cc(N(C)CCO)c([N+](=O)[O-])c3nonc23)C1 (stereo not given),> 35.9 µM (inactive)
2,COc1ccc(CCn2c(C)cc(C(=O)COC(=O)c3ccc(O)cc3O)c2C)cc1,> 35.9 µM (inactive)
3,COC(=O)c1ccc(N2CCCCC2)c(NC(=O)c2ccco2)c1,13.3 µM (inactive)
4,COc1ccnc(Oc2ccccc2)c1C(=O)N/C=N/OCc1ccccc1F,28.2 µM (inactive)
5,COc1ccc(-n2c(N)c(C(=O)NCc3cccnc3)sc2=S)cc1,> 35.9 µM (inactive)
6,Cc1ccc(NC(=O)COC(=O)C(NS(=O)(=O)c2ccc(Cl)cc2)C(C)O)cc1C (stereo not given),> 35.9 µM (inactive)
7,CCOc1ccc(OCCC(=O)OCC(=O)Nc2ccc3c(c2)OCCO3)cc1,> 35.9 µM (inactive)
8,CCc1cc(=O)oc2cc(C)cc(OCC(=O)NC3CC3)c12,> 35.9 µM (inactive)
9,CCc1c(C)nc(SCC(=O)Nc2ccc3c(c2)OCCO3)[nH]c1=O,> 35.9 µM (inactive)
10,CC(=O)Nc1ncc(Cc2cc(Cl)ccc2Cl)s1,> 35.9 µM (inactive)
11,Cc1ccc(NC(=O)CSc2nc3[nH]c(=O)cc(O)c3s2)c(Br)c1,> 35.9 µM (inactive)
12,CC(C)(Oc1ccc(Cl)cc1)C(=O)OCC(=O)NCCc1ccccc1,> 35.9 µM (inactive)
13,COc1ccc(S(=O)(=O)N2CCN(CC(=O)Nc3ccc(C)c(F)c3)CC2)cc1,> 35.9 µM (inactive)
14,COc1ccc(/C=N/NC(=O)c2ccc(NC(=O)c3cccc([N+](=O)[O-])c3)cc2)c(OC)c1,> 35.9 µM (inactive)
15,O=C(NCc1cccnc1)c1cccc2c1C(=O)N(C1CCCCC1)C2,> 35.9 µM (inactive)
16,Cc1ccc(NC(=O)COC(=O)C(NS(=O)(=O)c2ccc(Cl)cc2)C(C)O)c(Br)c1 (stereo not given),> 35.9 µM (inactive)
17,COc1cc(C(=O)Nc2ccccc2C2COC(=O)C2=N)cc(OC)c1OC (stereo not given),> 35.9 µM (inactive)
18,CC(=O)Nc1ccc(NC(=O)CSc2nnc(-c3cc4ccccc4o3)n2C)cc1,> 35.9 µM (inactive)
19,COc1ccc(Nc2nc(NCCN3CCOCC3)nc(Nc3ccc(OC)cc3)n2)cc1,> 35.9 µM (inactive)
20,COc1ccc(CCNC(=O)CN2C(=O)NC3(CCCCC3C)C2=O)cc1 (stereo not given),> 35.9 µM (inactive)
21,COc1ccc(NC(=O)CSc2nnc3ccc(-c4cccnc4)nn23)cc1OC,> 35.9 µM (inactive)
22,COc1ccccc1NC(=O)c1ccc(NC(=O)CSc2nnnn2C)cc1,> 35.9 µM (inactive)
23,COc1ccc(CCNC(=O)CN2C(=O)NC3(CCCCC3)C2=O)cc1,> 35.9 µM (inactive)
24,CC1CCCN(c2cc(N(C)CCO)c([N+](=O)[O-])c3nonc23)C1 (stereo not given),> 35.9 µM (inactive)
25,Cc1ccccc1C(=O)NC1CCN(CC(=O)Nc2ccc(Br)cc2)CC1,> 35.9 µM (inactive)

row,SMILES,IC50
1,CC(=O)Nc1cc(-c2cccnc2)cn2c(-c3ccc(F)cc3)cnc12,> 35.9 µM (inactive)
2,CC(=O)Nc1ccc(N=c2cc([N+](=O)[O-])cc(Cl)n2O)cc1,> 35.9 µM (inactive)
3,Cc1ccc(NC(=O)CN2C(=O)NC(C)(CC(C)C)C2=O)c(Br)c1 (stereo not given),> 35.9 µM (inactive)
4,O=C(CSc1nnc(CNC(=O)c2ccccc2F)o1)Nc1ccc2c(c1)OCCO2,> 35.9 µM (inactive)
5,COc1ccc(NS(=O)(=O)c2ccc(OCC(=O)N3CCN(C)CC3)cc2)cc1Cl,> 35.9 µM (inactive)
6,CCC(=O)Nc1nnc(SCC(=O)NCCc2ccc(OC)c(OC)c2)s1,> 35.9 µM (inactive)
7,COc1cc(OC)cc(-c2oc3cccnc3c2C#CCCO)c1,> 35.9 µM (inactive)
8,Cc1cccc(NC(=O)CSc2nc3[nH]ncc3c(=O)[nH]2)c1C,> 35.9 µM (inactive)
9,Cc1nn(Cc2ccccc2)c(C)c1C(=O)OCC(=O)Nc1ccccc1SCC#N,> 35.9 µM (inactive)
10,CCOc1ccc(NC(=O)COC(=O)CC2CCCCC2)cc1,> 35.9 µM (inactive)
11,CCOc1ccc(OCCN2C(=O)NC(Cc3c[nH]c4ccccc34)C2=O)cc1 (stereo not given),> 35.9 µM (inactive)
12,Cc1ccn2c(=O)nc(SCC(=O)Nc3ccc4c(c3)OCCO4)nc2c1,> 35.9 µM (inactive)
13,COC(=O)c1ccc(NC(=O)CSc2nc3ncccc3[nH]2)cc1,> 35.9 µM (inactive)
14,COc1cc(C(=O)Nc2ccccc2N2CCN(S(C)(=O)=O)CC2)cc(OC)c1OC,> 35.9 µM (inactive)
15,O=C(CSc1n[nH]c(-c2ccccc2)n1)Nc1ccc(F)cc1F,> 35.9 µM (inactive)
16,COc1ccc(CCNC(=O)CSc2nc3[nH]c(=O)cc(O)c3s2)cc1,> 35.9 µM (inactive)
17,CCc1cc(=O)oc2c(C)c(OCC(=O)NCCCN3CCOCC3)ccc12,> 35.9 µM (inactive)
18,COc1ccc(NC(=O)COC(=O)Cc2c[nH]c3ccccc23)cc1Cl,> 35.9 µM (inactive)
19,O=[N+]([O-])c1ccc(N2CCN(S(=O)(=O)c3ccccc3)CC2)cc1NCc1cccnc1,> 35.9 µM (inactive)
20,O=C(COc1ccc(S(=O)(=O)N2CCCC2)cc1Cl)Nc1ccc2c(c1)OCO2,> 35.9 µM (inactive)
21,Cc1cc(OCC(=O)N2CCC(O)CC2)c2c(C)cc(=O)oc2c1,> 35.9 µM (inactive)
22,CCOc1ccc(NC(=O)CSc2nccn(-c3ccc4c(c3)OCCO4)c2=O)cc1,> 35.9 µM (inactive)
23,COc1cccc(-c2cnc3c(NC(C)=O)cc(-c4ccc(S(C)(=O)=O)cc4)cn23)c1,> 35.9 µM (inactive)
24,CCOc1ccc(CCNC(=O)CN2C(=O)NC3(CCc4ccccc43)C2=O)cc1OCC (stereo not given),> 35.9 µM (inactive)
25,CC(Oc1ccc(S(=O)(=O)N2CCCC2)cc1[N+](=O)[O-])C(=O)NC(C)c1ccccc1 (stereo not given),20.1 µM (inactive)

row,SMILES,IC50
1,O=C(COc1ccc2c3c(c(=O)oc2c1)CCCC3)NCCN1CCOCC1,> 35.8 µM (inactive)
2,Cc1sc(NC(=O)C(C)C)c(C(=O)Nc2ccccc2)c1C,> 35.9 µM (inactive)
3,Cc1ccc(-c2csc(NC(=O)c3ccc([N+](=O)[O-])o3)n2)cc1,> 35.9 µM (inactive)
4,O=C(COC(=O)c1ccc(=O)n(Cc2ccccc2)n1)Nc1ccc2c(c1)OCCO2,> 35.9 µM (inactive)
5,Cc1ccc(NC(=O)COC(=O)c2cc(=O)c3ccccc3o2)c(Br)c1,> 35.9 µM (inactive)
6,CC(C)Oc1cccc(-c2cc(C(=O)NN3CCOCC3)c3ccccc3n2)c1,> 35.9 µM (inactive)
7,COc1ccccc1Oc1nnnn1-c1ccc(C(N)=O)cc1,> 35.9 µM (inactive)
8,CCOc1ccc(NC(=O)CSc2nc3[nH]ncc3c(=O)[nH]2)cc1,> 35.9 µM (inactive)
9,COc1ccc(NC(=O)CSc2nc3nc(C)cc(C)c3c(=O)[nH]2)cc1,> 35.9 µM (inactive)
10,COc1ccc(NC(=O)CSc2ncnc3[nH]ncc23)cc1,> 35.9 µM (inactive)
11,CCOc1ccc(NC(=O)COC(=O)COc2cccc3c2OC(C)(C)C3)cc1,> 35.9 µM (inactive)
12,Cc1cc(=O)oc2c(C)c(OCC(=O)NC3CC(C)(C)NC(C)(C)C3)ccc12,> 35.9 µM (inactive)
13,CCOc1ccc(Cc2nnc(SCC(=O)Nc3ccc(C(C)=O)cc3)[nH]c2=O)cc1,> 35.9 µM (inactive)
14,COC(=O)c1ccc(NC(=O)CSc2ccc(-c3ccccn3)nn2)cc1,> 35.9 µM (inactive)
15,CCOC(=O)c1cc2sccc2n1CC(=O)Nc1ccc2c(c1)OCCO2,> 35.9 µM (inactive)
16,CCCc1cc(=O)oc2c(C)c(OCC(=O)NCCCn3ccnc3)ccc12,> 35.9 µM (inactive)
17,CCOc1ccc(NC(=O)CSc2nncc(=O)n2N)cc1,> 35.9 µM (inactive)
18,O=C(CN1C(=O)CCC1=O)Nc1ccc(Br)cc1,> 35.9 µM (inactive)
19,CCc1cc(=O)oc2c(C)c(OCC(=O)NCCCN3CCCC3=O)ccc12,> 35.9 µM (inactive)
20,CCCc1cc(=O)oc2cc(C)cc(OCC(=O)NC3CC3)c12,> 35.9 µM (inactive)
21,CC(=O)Nc1cc(-c2ccc(S(C)(=O)=O)cc2)cn2c(-c3ccc(F)cc3)cnc12,> 35.9 µM (inactive)
22,Cc1onc(-c2ccccc2)c1C(=O)O/N=C(\N)c1ccc([N+](=O)[O-])o1,> 35.9 µM (inactive)
23,O=C(COc1ccc2c3c(c(=O)oc2c1)CCCC3)NCCCN1CCOCC1,> 35.9 µM (inactive)
24,Cn1cc(Cl)c(C(=O)OCC(=O)Nc2ccc(S(N)(=O)=O)cc2)n1,> 35.9 µM (inactive)
25,O=C(COc1ccc2c3c(c(=O)oc2c1)CCC3)NCc1ccncc1,> 35.9 µM (inactive)
